Assay results published in paper PMC7525318, “Identification of Six Flavonoids as Novel Cellular Antioxidants and Their Structure-Activity Relationship” (Oxidative Medicine and Cellular Longevity, 2020).

Tests used:
[1] = system: HepG2 cells; test: Cellular antioxidant activity (CAA) assay; type: cell-based; conditions: DCFH-DA 25 μM, ABAP 600 μM
Method: The CAA assay was tested as described previously. 6 × 10^4 cells/well of HepG2 cells were seeded at a 96-well microplate with 100 μL of growth medium/well. […] Then, the cells were washed with PBS and treated with 100 μL of 600 μM ABAP (dissolved in HBSS), and the 96-well microplate was immediately placed into an Infinite SpectraMax i3x Multi-Mode Detection plate-reader at 37°C. […]

[2] = DPPH radical scavenging activity; conditions: 0.1 mM DPPH in methanol, 37°C, 30 min
Method: This assay was conducted as previously described by Wen et al. with some modifications. DPPH was freshly prepared in methanol at a concentration of 0.1 mM. The solution (20 μL) containing the tested compounds with different concentrations was added into the DPPH solution (180 μL) in the 96-well plates. […] The IC50 value was calculated on the scavenging activity against DPPH radical.

[3] = Oxygen radical antioxidant capacity (ORAC) assay; conditions: Trolox equivalents; AAPH, fluorescein
Method: The ORAC assay was evaluated as previously described by Cao et al. with some modifications. 50 μL of samples or Trolox with different concentrations and the fluorescein solution was added to a 96-well microplate, which was incubated at 37°C for 10 min. […] The ORAC values were calculated by the regression equation between the Trolox concentration and the net area under the curve (expressed as μmol Trolox eq/μmol sample).

SMILES	EC50 ([1]; Homo sapiens) [µM]	IC50 [2] [µM]	ORAC values [3] [μmol TE/μmol]	EC50 [1] [µM]
O=c1c(O)c(-c2ccc(O)c(O)c2)oc2cc(O)cc(O)c12 [compound 7, Quercetin, reference compound]	8.77 ± 0.09	21.5 ± 1.9	5.52 ± 0.04	–
O=c1c(O)c(-c2ccc(OC3O[C@H](CO)[C@@H](O)[C@H](O)[C@H]3O)cc2)oc2cc(O)cc(O)c12 (stereo partly drawn) [compound 12, Kaempferol-4′-O-glucopyranoside]	> 200	> 200	–	–
O=C1C[C@@H](c2ccc(O)cc2)Oc2cc(O)cc(O)c21 [compound 45, Naringenin]	> 200	> 200	4.62 ± 0.13	–
O=c1cc(-c2ccc(O)cc2)oc2cc(O)c([C@@H]3O[C@H](CO)[C@@H](O)[C@H](O)[C@H]3O)c(O)c12 [compound 33, Isovitexin]	> 200	> 200	–	–
COc1cc(O)c2c(=O)cc(-c3ccc(O)cc3)oc2c1 [compound 37, Genkwanin]	> 200	> 200	–	–
O=c1c(OC2OC(CO)C(O)C(O)C2O)c(-c2cc(O)c(O)c(O)c2)oc2cc(O)cc(O)c12 (stereo not drawn) [compound 25, Myricetin-3-O-galactoside]	> 200	82.4 ± 2.88	–	–
OCC1OC(Oc2cc3c(OC4OC(CO)C(O)C(O)C4O)cc(O)cc3[o+]c2-c2ccc(O)c(O)c2)C(O)C(O)C1O (stereo not drawn) [compound 53, Cyanin chloride]	> 200	> 200	–	–
O=C(O[C@@H]1Cc2c(O)cc(O)cc2O[C@@H]1c1cc(O)c(O)c(O)c1)c1cc(O)c(O)c(O)c1 [compound 60, Epigallocatechin gallate]	25.91 ± 0.25	19.1 ± 0.62	6.02 ± 0.14	–
COc1cc(-c2[o+]c3cc(O)cc(OC4OC(CO)C(O)C(O)C4O)c3cc2OC2OC(CO)C(O)C(O)C2O)cc(OC)c1O (stereo not drawn) [compound 57, Malvin]	> 200	> 200	4.32 ± 0.19	–
Oc1cc(O)c2c(c1)OC(c1ccc(O)c(O)c1)C(O)C2 (stereo not drawn) [compound 59, Catechin]	> 200	130 ± 5.55	4.93 ± 0.02	–
O=c1cc(-c2ccc(O)c(O)c2)oc2cc(O)cc(O)c12 [compound 23, Luteolin]	18.6 ± 0.61	73.2 ± 0.75	4.27 ± 0.02	–
COc1ccc(-c2oc3cc(O)cc(O)c3c(=O)c2O)cc1 [compound 3, Kaempferide]	> 30	> 200	–	–
O=C1c2c(O)cc(O)cc2O[C@H](c2cc(O)c(O)c(O)c2)[C@H]1O [compound 38, Dihydromyricetin]	> 200	> 200	5.25 ± 0.02	–
COc1ccc([C@@H]2CC(=O)c3c(O)cc(O[C@@H]4O[C@H](CO)[C@@H](O)[C@H](O)[C@H]4O[C@@H]4O[C@@H](C)[C@H](O)[C@@H](O)[C@H]4O)cc3O2)cc1O [compound 41, Neohesperidin]	–	> 200	–	> 200
O=C(CCc1ccc(O)cc1)c1c(O)cc(O)cc1O [compound 48, Phloretin]	30.96 ± 0.2	> 200	–	–
COc1ccc([C@@H]2CC(=O)c3c(O)cc(O)cc3O2)cc1O [compound 43, Hesperetin]	> 200	> 200	–	–
O=c1c(OC2OC(CO)C(O)C(O)C2O)c(-c2ccc(O)c(O)c2)oc2cc(O)cc(O)c12 (stereo not drawn) [compound 26, Quercetin-3-O-galactoside]	45.9	53.3	4.05 ± 0.15	–
COc1cc(-c2oc3cc(O)cc(O)c3c(=O)c2O)ccc1O [compound 1, Isorhamnetin]	23.3 ± 1.38	126 ± 4.26	–	–
C[C@@H]1O[C@@H](Oc2c(-c3ccc(O)c(O)c3)oc3cc(O)cc(O)c3c2=O)[C@H](O)[C@H](O)[C@H]1O [compound 28, Quercitrin]	> 200	68.3 ± 1.37	–	–
O=C1C[C@@H](c2ccc(O)cc2)Oc2cc(O)ccc21 [compound 46, Liquiritigenin]	> 200	> 200	–	–
C[C@@H]1O[C@@H](OC[C@H]2O[C@@H](Oc3c(-c4ccc(O)c(O)c4)oc4cc(O)cc(O)c4c3=O)[C@H](O)[C@@H](O)[C@@H]2O)[C@H](O)[C@H](O)[C@H]1O [compound 16, Rutin]	> 200	70 ± 1.44	–	–
O=c1c(O[C@@H]2O[C@H](CO)[C@@H](O)[C@H](O)[C@H]2O)c(-c2ccc(O)c(O)c2)oc2cc(O)cc(O)c12 [compound 29, Isoquercitrin]	> 200	> 200	–	–
OCC1OC(Oc2cc3c(OC4OC(CO)C(O)C(O)C4O)cc(O)cc3[o+]c2-c2ccc(O)cc2)C(O)C(O)C1O (stereo not drawn) [compound 55, Pelargonin chloride]	> 200	> 200	–	–
